Reference: ChEMBL document CHEMBL1131447 (J Med Chem, 1998)

Legend:
Mus musculus [1] = assay: In vivo antipsychotic activity measured by the inhibition of apomorphine-induced climbing behavior in mice after 30 min po administration.; type: functional; conditions: 0.5 h
Rattus norvegicus [2] = assay: In vivo antipsychotic activity measured by the induction of catalepsy in rats after po administration.; type: functional
[3] = target: T1, 5-hydroxytryptamine receptor 2A (Rattus norvegicus, UniProt P14842)
T1 sequence (P14842 whole entry): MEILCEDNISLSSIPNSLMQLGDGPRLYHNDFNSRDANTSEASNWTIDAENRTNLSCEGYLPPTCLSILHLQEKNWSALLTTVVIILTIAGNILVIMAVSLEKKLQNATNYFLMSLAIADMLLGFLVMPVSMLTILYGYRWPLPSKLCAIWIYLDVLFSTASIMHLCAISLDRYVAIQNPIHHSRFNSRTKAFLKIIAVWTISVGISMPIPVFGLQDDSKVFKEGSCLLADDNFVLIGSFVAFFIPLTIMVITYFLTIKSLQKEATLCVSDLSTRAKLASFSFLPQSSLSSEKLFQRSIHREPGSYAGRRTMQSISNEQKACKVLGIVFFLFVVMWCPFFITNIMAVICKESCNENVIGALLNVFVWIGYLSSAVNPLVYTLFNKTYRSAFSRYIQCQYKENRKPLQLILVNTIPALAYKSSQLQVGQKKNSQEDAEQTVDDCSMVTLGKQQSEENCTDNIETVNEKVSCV

Rattus norvegicus [4] = assay: In vivo antipsychotic activity measured by the induction of catalepsy in rats after po administration; type: functional
D(3) dopamine receptor = D(3) dopamine receptor (Homo sapiens, UniProt P35462); assay: Binding affinity measured at the Dopamine receptor D3 by the inhibition of [3H]YM-09151-2 binding to human recombinant CCL 1.3 cells using unlabeled 7-OH-DPAT for nonspecific binding.
Chain of D(3) dopamine receptor (P35462 whole entry): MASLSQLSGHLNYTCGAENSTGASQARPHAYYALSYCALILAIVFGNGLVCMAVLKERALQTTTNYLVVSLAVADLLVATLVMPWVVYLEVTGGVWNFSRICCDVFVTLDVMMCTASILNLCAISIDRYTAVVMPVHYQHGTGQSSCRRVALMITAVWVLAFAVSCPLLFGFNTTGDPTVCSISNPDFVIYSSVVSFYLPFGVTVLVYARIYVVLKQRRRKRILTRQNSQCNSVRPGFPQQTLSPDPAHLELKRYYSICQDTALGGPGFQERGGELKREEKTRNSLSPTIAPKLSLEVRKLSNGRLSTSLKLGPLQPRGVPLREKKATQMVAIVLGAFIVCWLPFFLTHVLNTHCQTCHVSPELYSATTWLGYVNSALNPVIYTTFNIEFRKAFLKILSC

Rattus norvegicus [5] = organism: Rattus norvegicus; assay: Inhibition of apomorphine-induced stereotypy in rats.; type: functional
[6] = target: T2, 5-hydroxytryptamine receptor 1A (Rattus norvegicus, UniProt P19327); assay: Binding affinity measured at the 5-hydroxytryptamine 1A receptor by the inhibition of [3H]8-OH-DPAT binding to rat cortex using unlabeled buspirone for nonspecific binding.
T2 sequence (P19327 whole entry): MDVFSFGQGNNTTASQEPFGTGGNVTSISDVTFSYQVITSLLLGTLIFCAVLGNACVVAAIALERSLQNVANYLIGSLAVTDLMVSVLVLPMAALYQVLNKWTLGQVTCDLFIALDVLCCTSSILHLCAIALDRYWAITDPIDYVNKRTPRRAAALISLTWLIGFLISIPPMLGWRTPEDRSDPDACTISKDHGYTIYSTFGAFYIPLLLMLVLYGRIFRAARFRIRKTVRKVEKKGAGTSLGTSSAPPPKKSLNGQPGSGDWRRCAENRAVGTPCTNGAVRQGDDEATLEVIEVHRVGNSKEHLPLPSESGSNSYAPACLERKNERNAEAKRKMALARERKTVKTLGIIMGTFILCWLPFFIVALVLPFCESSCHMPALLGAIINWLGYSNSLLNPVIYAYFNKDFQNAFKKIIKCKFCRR

Adrenergic receptor beta = Adrenergic receptor beta (Rattus norvegicus, UniProt P18090+P10608+P26255); assay: Binding affinity measured at the Beta adrenergic receptor by the inhibition of [3H]DHA binding to rat cortex using unlabeled isoprenalin for nonspecific binding.
Mus musculus [7] = organism: Mus musculus; assay: Inhibition of grooming-induced by SKF 38393 in mice.; type: functional
[8] = target: T3, Adrenergic receptor alpha-2 (Rattus norvegicus, UniProt P22086+P19328+P22909); assay: Binding affinity measured at the Alpha-2 adrenergic receptor by the inhibition of [3H]clonidine binding to rat cortex using unlabeled NAbitartrate for nonspecific binding.
T3 sequence (P22086 whole entry): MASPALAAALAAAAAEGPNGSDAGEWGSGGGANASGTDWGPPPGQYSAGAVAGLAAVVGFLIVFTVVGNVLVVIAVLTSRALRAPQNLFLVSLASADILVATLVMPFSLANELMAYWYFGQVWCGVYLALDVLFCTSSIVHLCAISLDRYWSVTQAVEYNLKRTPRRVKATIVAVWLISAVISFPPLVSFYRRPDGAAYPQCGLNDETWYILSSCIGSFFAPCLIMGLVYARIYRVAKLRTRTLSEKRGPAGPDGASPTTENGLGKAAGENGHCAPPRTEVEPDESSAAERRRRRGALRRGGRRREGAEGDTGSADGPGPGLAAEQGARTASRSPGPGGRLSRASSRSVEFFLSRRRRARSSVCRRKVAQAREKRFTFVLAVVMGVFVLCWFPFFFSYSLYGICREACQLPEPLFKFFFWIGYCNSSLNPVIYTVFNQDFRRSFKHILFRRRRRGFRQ
T3 sequence (P19328 whole entry): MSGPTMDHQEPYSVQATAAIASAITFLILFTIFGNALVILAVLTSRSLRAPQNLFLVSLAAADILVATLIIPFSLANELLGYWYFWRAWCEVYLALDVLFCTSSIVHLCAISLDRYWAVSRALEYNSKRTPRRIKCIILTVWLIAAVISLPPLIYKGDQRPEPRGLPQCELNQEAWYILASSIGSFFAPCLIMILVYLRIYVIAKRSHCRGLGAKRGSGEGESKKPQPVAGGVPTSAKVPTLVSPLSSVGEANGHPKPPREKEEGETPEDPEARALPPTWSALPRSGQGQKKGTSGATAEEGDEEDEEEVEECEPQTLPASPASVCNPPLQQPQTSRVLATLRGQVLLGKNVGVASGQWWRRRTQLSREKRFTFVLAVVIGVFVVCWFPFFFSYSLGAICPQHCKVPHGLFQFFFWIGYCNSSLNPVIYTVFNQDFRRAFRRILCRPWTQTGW
T3 sequence (P22909 whole entry): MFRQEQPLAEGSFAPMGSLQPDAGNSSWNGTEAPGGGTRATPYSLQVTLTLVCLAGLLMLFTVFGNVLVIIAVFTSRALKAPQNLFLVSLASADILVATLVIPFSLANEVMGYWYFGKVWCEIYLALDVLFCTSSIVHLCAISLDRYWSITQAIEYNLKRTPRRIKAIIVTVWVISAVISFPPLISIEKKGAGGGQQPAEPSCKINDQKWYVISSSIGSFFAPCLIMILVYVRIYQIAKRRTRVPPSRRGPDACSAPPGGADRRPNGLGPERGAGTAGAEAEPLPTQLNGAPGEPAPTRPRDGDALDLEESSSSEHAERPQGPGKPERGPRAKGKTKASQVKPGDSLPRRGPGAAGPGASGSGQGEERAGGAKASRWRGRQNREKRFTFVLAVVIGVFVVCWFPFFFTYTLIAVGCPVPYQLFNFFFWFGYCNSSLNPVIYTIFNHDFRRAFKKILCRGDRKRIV

[9] = target: T4, Alpha-1A adrenergic receptor (Rattus norvegicus, UniProt P43140)
T4 sequence (P43140 whole entry): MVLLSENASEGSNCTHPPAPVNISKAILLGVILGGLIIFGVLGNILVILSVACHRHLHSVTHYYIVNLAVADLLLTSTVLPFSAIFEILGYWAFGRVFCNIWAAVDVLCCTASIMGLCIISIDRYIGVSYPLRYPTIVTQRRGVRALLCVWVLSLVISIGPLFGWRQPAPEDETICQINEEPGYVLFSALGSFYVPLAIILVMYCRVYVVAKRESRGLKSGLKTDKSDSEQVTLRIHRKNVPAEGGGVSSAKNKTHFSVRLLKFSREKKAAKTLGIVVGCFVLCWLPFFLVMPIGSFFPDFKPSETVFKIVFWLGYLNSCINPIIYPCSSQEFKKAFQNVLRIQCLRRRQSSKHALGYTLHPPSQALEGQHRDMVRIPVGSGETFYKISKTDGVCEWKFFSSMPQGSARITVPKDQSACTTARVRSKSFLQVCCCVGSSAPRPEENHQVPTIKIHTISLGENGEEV
Description: Binding affinity measured at the Alpha-1A adrenergic receptor by the inhibition of [3H]prazosin binding to rat cortex using unlabeled WB-4101 for nonspecific binding.

[10] = target: Muscarinic acetylcholine receptor; assay: Binding affinity measured at the Muscarinic acetylcholine receptor by the inhibition of [3H]-pyrilamine binding to guinea pig cerebellum using unlabeled Triprolidine for nonspecific binding.; type: tissue-based, Cavia porcellus
D(1A) dopamine receptor = D(1A) dopamine receptor (Rattus norvegicus, UniProt P18901); assay: biochemical
Chain of D(1A) dopamine receptor (P18901 whole entry): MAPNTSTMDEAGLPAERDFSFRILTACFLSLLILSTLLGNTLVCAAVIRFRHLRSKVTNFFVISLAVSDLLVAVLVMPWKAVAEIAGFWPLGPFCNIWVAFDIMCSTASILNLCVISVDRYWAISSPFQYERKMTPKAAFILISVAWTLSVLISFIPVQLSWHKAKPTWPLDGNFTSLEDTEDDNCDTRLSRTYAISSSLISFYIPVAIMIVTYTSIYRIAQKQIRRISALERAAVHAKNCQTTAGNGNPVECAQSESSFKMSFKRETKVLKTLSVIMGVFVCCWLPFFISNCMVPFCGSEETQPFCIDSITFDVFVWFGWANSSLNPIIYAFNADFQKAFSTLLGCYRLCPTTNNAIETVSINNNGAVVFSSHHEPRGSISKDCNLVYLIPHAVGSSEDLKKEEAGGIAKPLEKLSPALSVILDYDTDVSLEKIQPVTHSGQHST
Description: Binding affinity measured at the Dopamine receptor D1 by the inhibition of [3H]SCH-23390 binding to rat striatum using unlabeled apomorphine for nonspecific binding.

D(4) dopamine receptor = target: T5, D(4) dopamine receptor (Homo sapiens, UniProt P21917); assay: biochemical
T5 sequence (P21917 whole entry): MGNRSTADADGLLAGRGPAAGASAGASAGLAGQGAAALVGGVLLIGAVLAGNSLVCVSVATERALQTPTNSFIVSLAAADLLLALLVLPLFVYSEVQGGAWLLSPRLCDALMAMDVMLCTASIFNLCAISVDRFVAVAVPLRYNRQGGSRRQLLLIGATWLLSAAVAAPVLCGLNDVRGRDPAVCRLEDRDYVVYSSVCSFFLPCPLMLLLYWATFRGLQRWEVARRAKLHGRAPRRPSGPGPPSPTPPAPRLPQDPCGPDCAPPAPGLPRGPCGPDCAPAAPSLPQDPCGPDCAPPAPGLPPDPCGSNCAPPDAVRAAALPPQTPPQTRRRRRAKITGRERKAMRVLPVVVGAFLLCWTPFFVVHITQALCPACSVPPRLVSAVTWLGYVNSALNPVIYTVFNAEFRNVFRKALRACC

[11] = target: T1, 5-hydroxytryptamine receptor 2A; remark: listed apart in the source
Description: Binding affinity measured at the 5-hydroxytryptamine 2A receptor by the inhibition of [3H]ketanserin binding to rat cortex using unlabeled mianserin for nonspecific binding.

Mus musculus [12] = organism: Mus musculus; assay: Inhibition of p-chloroamphetamine-induced hyperactivity in mice.; type: functional
Mus musculus [13] = organism: Mus musculus; assay: Inhibition of head twitches-induced by 2,5-dimethoxy-4-iodoamphetamine in mice.; type: functional
[14] = target: Beta-1 adrenergic receptor (Rattus norvegicus, UniProt P18090); assay: Binding affinity measured at the Beta-1 adrenergic receptor by the inhibition of [3H]DHA binding to rat cortex using unlabeled isoprenalin for nonspecific binding.
Chain of Beta-1 adrenergic receptor (P18090 whole entry): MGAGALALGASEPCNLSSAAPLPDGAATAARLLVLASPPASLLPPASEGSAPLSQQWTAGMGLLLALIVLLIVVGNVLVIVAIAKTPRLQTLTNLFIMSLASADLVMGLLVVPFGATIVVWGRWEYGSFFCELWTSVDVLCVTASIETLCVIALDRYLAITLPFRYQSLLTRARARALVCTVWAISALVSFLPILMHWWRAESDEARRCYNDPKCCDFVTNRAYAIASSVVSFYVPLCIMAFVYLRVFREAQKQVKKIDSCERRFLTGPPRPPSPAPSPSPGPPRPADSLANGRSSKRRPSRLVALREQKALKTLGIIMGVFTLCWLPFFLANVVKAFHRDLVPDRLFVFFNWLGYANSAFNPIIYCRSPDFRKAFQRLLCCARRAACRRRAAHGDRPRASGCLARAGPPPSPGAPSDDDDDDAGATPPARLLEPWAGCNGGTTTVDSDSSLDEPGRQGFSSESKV

SMILES | IC50 [3] [µM] | ED50 (Mus musculus [1]) [mg/kg] | ED50 (Rattus norvegicus [2]) [mg/kg] | ED50 (Mus musculus [7]) [mg/kg] | ED50 (Mus musculus [12]) [mg/kg] | also measured
O=Cc1coc2cc(OCCCN3CCC(c4noc5cc(F)ccc45)CC3)ccc2c1=O |  | 3.32 |  |  |  | ED50 (Rattus norvegicus [4]): 15.9 mg/kg
O=C(O)c1coc2cc(OCCCN3CCC(c4noc5cc(F)ccc45)CC3)ccc2c1=O |  | > 10 | > 50 |  |  | 
CN1CCN(C2=Nc3cc(Cl)ccc3Nc3ccccc32)CC1 [CLOZAPINE] |  | 15.4 | > 100 | 0.33 | 6.41 | ED50 (Rattus norvegicus [5]): > 100 mg/kg; ED50 (Mus musculus [13]): 0.85 mg/kg
Cc1nc2n(c(=O)c1CCN1CCC(c3noc4cc(F)ccc34)CC1)CCCC2 [RISPERIDONE] |  | 0.29 | 5 | 0.41 | 0.2 | ED50 (Rattus norvegicus [5]): 9.7 mg/kg; Ki [14]: 22 µM
Cc1coc2cc(OCCCN3CCC(c4noc5cc(F)ccc45)CC3)ccc2c1=O |  | 0.4 | 2.85 |  |  | 
O=C(CCCN1CCC(O)(c2ccc(Cl)cc2)CC1)c1ccc(F)cc1 [HALOPERIDOL] |  | 0.31 | 2 | 0.28 | 0.3 | ED50 (Mus musculus [13]): 0.56 mg/kg

More lines, main results first:

IC50 [3] [µM] | SMILES | ED50 (Mus musculus [1]) [mg/kg] | ED50 (Rattus norvegicus [2]) [mg/kg] | ED50 (Mus musculus [7]) [mg/kg] | ED50 (Mus musculus [12]) [mg/kg] | also measured
0.0014 | COCc1coc2cc(OCCCN3CCC(c4noc5cc(F)ccc45)CC3)ccc2c1=O | 0.27 | 6.88 |  |  | 
0.0253 | Cc1coc2cc(OCCCN3CCC(C(=O)c4ccc(F)cc4)CC3)ccc2c1=O |  |  |  |  | 
0.0086 | O=c1ccoc2cc(OCCCN3CCC(c4noc5cc(F)ccc45)CC3)ccc12 | 1.08 | 12.6 |  |  | 
0.0072 | O=c1cc(CO)oc2cc(OCCCN3CCC(c4noc5cc(F)ccc45)CC3)ccc12 | 5.88 | > 100 |  |  | 
0.0062 | O=c1c(CO)coc2cc(OCCCN3CCC(c4noc5cc(F)ccc45)CC3)ccc12 [ABAPERIDONE] | 0.24 | 8.48 | 0.31 | 0.16 | Ki (D(3) dopamine receptor): 0.0054 µM; ED50 (Rattus norvegicus [5]): 18.6 mg/kg; Ki [6]: 0.094 µM; Ki (Adrenergic receptor beta): 2.99 µM; Ki [8]: 0.169 µM; Ki [9]: 0.0024 µM; Ki [10]: 1.13 µM; Ki (D(1A) dopamine receptor): 0.239 µM; Ki (D(4) dopamine receptor): 0.179 µM; Ki [11]: 0.0019 µM; ED50 (Mus musculus [13]): 0.08 mg/kg
0.0329 | O=C(c1ccc(F)cc1)C1CCN(CCCOc2ccc3c(=O)c(CO)coc3c2)CC1 | 2.02 | 13 |  |  | 
